The text below walks through data of patent publication US20030031690A1, “Cosmetic composition for preventing and treating acnes containing cryptotanshinone” (priority 2001, published 2003).

Assay [1] relates to Propionibacterium acnes. The assay is described as follows: Antibacterial ability against Propionibacterium acnes (MIC on BHI solid flat medium). Particulars: P. acnes, three days. It counts as cell-based. From the text:
To measure the antibacterial ability of cryptotanshinone against Propionibacterium acnes (P. acnes hereinafter), P. acnes kept in a cold storage in original state was cultivated on a BHI (Brain Heart Infusion) solid flat medium three days before the beginning of experiment. On the day of experiment, the P. acnes previously cultivated was inoculated into BHI solid flat medium containing the predetermined concentration of cryptotanshinone. Three days later after that, the minimum inhibition concentration (MIC) is obtained by measuring the number of P. acnes. The experiment was conducted in the same manner as experimental example 5, except for using benzoyl peroxide instead of cryptotanshinone.

In assay [2] the test system is ears of mice. The assay is described as follows: Anti-inflammation effect, arachidonic acid-induced ear edema. The assay is classed as in vivo. Particulars: for Thickness of ear After applying agent / Thickness of ear Before applying agent: agent 0.3% in ethanol once a day for four days, average of 7 mice; for Thickness of ear After applying agent: 2 mg/ear arachidonic acid, one hour after; for Restraint rate: agent 0.3% in ethanol, (A − B)/A × 100 against comparative group. As to the method: When inflammation is generated due to P. acnes, become more serious. Accordingly, the effect of alleviating the inflammation due to acne is verified by assessing the anti-inflammatory effect of cryptotanshinone. The experiment is conducted by a method using arachidonic acid (A. Crummey, G. P. Harper, E. A. Boyle and F. R. Mangan. Inhibition of arachidonic acid-induced ear oedema as a model for assessing topical anti-inflammatory compound. Agents and Actions 1987; 20:69-76).
After washing both ears of mice with ethanol before applying the agent, 201 o f cryptotanshinone having a concentration of 0.3% is applied to the ears of mice belonging to an agent application group once a day for four days, while 201 o f ethanol is applied to mice in a comparative group. One hour after the last application, ethanol is applied to the left ears of mice and 2 mg/ear of arachidonic acid is applied to the right ears of mice. One hour after that, the degree of ear edema is repeatedly measured by micrometer three times for each ear. The left ears of mice in the agent application group are used as a comparative group for measuring the degree of inflammation being induced by the agent.
The anti-inflammatory effect is assessed by the degree that the edema in the agent application group is restrained by cryptotanshinone on the basis of the comparative group to which arachidonic acid is applied. The number of mice used for each group is seven and the value is an average of those of 7 mice.
The experiments are conducted in the same manner as experimental example 6, except for respectively using stearyl glycyrrhetinate and indomethacin instead of cryptotanshinone.

Assay [3] deals with 5 α-reductase. The assay is described as follows: Inhibition of 5 α-reductase (conversion of 3H-testosterone to dihydrotestosterone, HPLC). It counts as biochemical. As to the method:
30 l of Phosphate Buffered Saline (PBS/pH 6.6) is mixed with 101 of dithiothreitol, NADPH, and testosterone, into which radioactive isotopes are combined (3H-1, 2, 4, 5, 6, 7-testosterone), 401 of extract liquid of enzyme 5 α-reductase, and 20 l of cryptotanshinone having 0.001% of concentration. Next, the composition mentioned above is left at the normal temperature for 10 minutes so that the materials in the composition react to each other, and then the amount of converted dihydrotestosterone are measured by HPLC and a measuring instrument of radioisotope.
Inhibition rate (%)=[…].
The experiments are conducted in the same manner as experimental example 1, except for changing the concentration of cryptotanshinone as described in Table 1.

Values after ≈ are worked out from the molar mass of the structure shown.

Turning to `O=C(OOC(=O)c1ccccc1)c1ccccc1` [Benzoyl peroxide, reference compound], the MIC in assay [1] (Cutibacterium acnes, 72 h) fell in the range of 500 to 1000 µg/mL (≈ 2.06 to 4.13 mM).

As to `COc1ccc2c(c1)c(CC(=O)O)c(C)n2C(=O)c1ccc(Cl)cc1` [Indomethacin, indomethacin], in assay [2], the “Thickness of ear After applying agent” value was 391, the “Thickness of ear Before applying agent” value is reported as 273 and the Restraint rate was determined as 46.6%.

As for `CCCCCCCCCCCCCCCCCCOC(=O)[C@@]1(C)CC[C@]2(C)CC[C@]3(C)C(=CC(=O)[C@@H]4[C@@]5(C)CC[C@H](O)C(C)(C)[C@@H]5CC[C@]43C)[C@@H]2C1` [Stearyl Glycyrrhetinate, stearyl glycyrrhetinate], in assay [2], the “Thickness of ear After applying agent” value was 454, the “Thickness of ear Before applying agent” value is on record as 268 and the Restraint rate amounted to 15.8%.

As to Cryptotanshinone, in assay [1], the “MIC (mole)” value is on record as 100-500 ppm. Further, the Inhibition rate in assay [3] (concentration of cryptotanshinone 0.001%) was determined as 19.1%; in assay [3] (concentration of cryptotanshinone 0.01%) it was 36.0%; in assay [3] (concentration of cryptotanshinone 0.1%), 45.9%; in assay [3] (concentration of cryptotanshinone 1.0%), 100%. Besides, the “Thickness of ear After applying agent” value in assay [2] stood at 437. The “Thickness of ear Before applying agent” value in assay [2] amounted to 271. In assay [2], this molecule had a Restraint rate of 24.9%.

By MIC is commonly meant the lowest concentration that inhibits growth of the organism. Lower therefore signals greater potency.
